Assay type in all cases: functional, organism-based
The test system of experiment [1] is Plasmodium chabaudi. Nature of the experiment: Antimicrobial activity against chloroquine-resistant Plasmodium chabaudi ASCQ infected in NIH mice (Mus musculus) at 2.5 mg/kg, perorally administered after 72 hrs post inoculation measured on day 4 post infection. Also on record: dose 2.5 mg/kg.
The subject of experiment [2] is Plasmodium falciparum. Nature of the experiment: Antimicrobial activity against chloroquine-resistant Plasmodium falciparum 3D7 infected in human erythrocytes assessed as potentiation of choloroquine-mediated antimalarial activity by light microscopy.
Experiment [3] has as its system Plasmodium chabaudi. Nature of the experiment: Antimicrobial activity against chloroquine-resistant Plasmodium chabaudi ASCQ infected in NIH mice (Mus musculus) assessed as potentiation of 2.5 mg/kg chloroquine-mediated antimalarial activity at 100 mg/kg, perorally administered after 72 hrs post inoculation measured on day 4 post infection.
Experiment [4] has as its system Plasmodium falciparum. Nature of the experiment: Antimicrobial activity against chloroquine-resistant Plasmodium falciparum Dd2 infected in human erythrocytes assessed as potentiation of choloroquine-mediated antimalarial activity by light microscopy.
Experiment [5] deals with Plasmodium chabaudi. Nature of the experiment: Antimicrobial activity against chloroquine-resistant Plasmodium chabaudi ASCQ infected in NIH mice (Mus musculus) assessed as potentiation of 2.5 mg/kg chloroquine-mediated antimalarial activity at 10 to 160 mg/kg, perorally administered after 72 hrs post inoculation measured on day 4 post infection.
Experiment [6] relates to Plasmodium chabaudi. Nature of the experiment: Antimicrobial activity against chloroquine-resistant Plasmodium chabaudi ASCQ infected in NIH mice (Mus musculus) at 10 to 160 mg/kg, perorally administered after 72 hrs post inoculation measured on day 4 post infection.
Experiment [7] concerns Plasmodium chabaudi. Nature of the experiment: Antimicrobial activity against chloroquine-sensitive Plasmodium chabaudi ASS infected in NIH mice (Mus musculus) assessed as potentiation of 2.5 mg/kg chloroquine-mediated antimalarial activity at 100 mg/kg, perorally administered after 72 hrs post inoculation measured on day 4 post infection.

These results are taken from ChEMBL document CHEMBL1255377, “Synergy of human immunodeficiency virus protease inhibitors with chloroquine against Plasmodium falciparum in vitro and Plasmodium chabaudi in vivo” (Antimicrob Agents Chemother, 2008).

The structures appear in SMILES notation. Active and inactive are the calls of the source. No cut-off for these calls is given here.

`CCN(CC)CCCC(C)Nc1ccnc2cc(Cl)ccc12` (centres undefined): the outcome in experiment [1] was inactive.

`Cc1c(O)cccc1C(=O)N[C@@H](CSc1ccccc1)[C@H](O)CN1C[C@H]2CCCC[C@H]2C[C@H]1C(=O)NC(C)(C)C`: the outcome in experiment [2], in experiment [3] and in experiment [4] was Active.

On to `CC(C)(C)NC(=O)[C@@H]1C[C@@H]2CCCC[C@@H]2CN1C[C@@H](O)[C@H](Cc1ccccc1)NC(=O)[C@H](CC(N)=O)NC(=O)c1ccc2ccccc2n1`, for which the outcome in experiment [2], in experiment [3] and in experiment [4] was Active.

Regarding `CC(C)c1nc(CN(C)C(=O)N[C@H](C(=O)N[C@@H](Cc2ccccc2)C[C@H](O)[C@H](Cc2ccccc2)NC(=O)OCc2cncs2)C(C)C)cs1`, the result in experiment [5], in experiment [2], in experiment [3], in experiment [6], in experiment [7] and in experiment [4] was Active.

Take `Cc1cccc(C)c1OCC(=O)N[C@@H](Cc1ccccc1)[C@@H](O)C[C@H](Cc1ccccc1)NC(=O)[C@H](C(C)C)N1CCCNC1=O`: the result in experiment [2] and in experiment [4] was Active. Further, the outcome in experiment [3] was inactive.

As for `COC(=O)N[C@H](C(=O)N[C@@H](Cc1ccccc1)[C@@H](O)CN(Cc1ccc(-c2ccccn2)cc1)NC(=O)[C@@H](NC(=O)OC)C(C)(C)C)C(C)(C)C`, the outcome in experiment [2], in experiment [3] and in experiment [4] was Active.
